Patent publication US20090264433A1, “Compounds, Compositions and Methods Comprising Triazine Derivatives” (Institute for OneWorld Health, priority 2008, published 2009)
Structures can show the parent of a compound that is named as a salt.

target: T1, CFTR channel in human colonic T84 cells (Homo sapiens, UniProt P13569); assay: T84 assay (FLIPR membrane potential dye, forskolin/IBMX-stimulated CFTR); assay type: cell-based; settings: average of at least 2 runs unless annotated n = 1
T1 construct: results in the phosphorylation and opening of CFTR anion channels; host or cells: human colonic T84 cells
Procedure, shortened: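 T84 cells (25,000/well, grown overnight) were washed in HBSS with 10 mM Hepes, then loaded with FLIPR Red membrane potential dye for 45 min with or without compound. CFTR was stimulated with 10 μM forskolin plus 100 μM IBMX after a 10 s baseline. Depolarization was tracked as a fluorescence increase, read every second for 150 s.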

T1 sequence (P13569 whole entry): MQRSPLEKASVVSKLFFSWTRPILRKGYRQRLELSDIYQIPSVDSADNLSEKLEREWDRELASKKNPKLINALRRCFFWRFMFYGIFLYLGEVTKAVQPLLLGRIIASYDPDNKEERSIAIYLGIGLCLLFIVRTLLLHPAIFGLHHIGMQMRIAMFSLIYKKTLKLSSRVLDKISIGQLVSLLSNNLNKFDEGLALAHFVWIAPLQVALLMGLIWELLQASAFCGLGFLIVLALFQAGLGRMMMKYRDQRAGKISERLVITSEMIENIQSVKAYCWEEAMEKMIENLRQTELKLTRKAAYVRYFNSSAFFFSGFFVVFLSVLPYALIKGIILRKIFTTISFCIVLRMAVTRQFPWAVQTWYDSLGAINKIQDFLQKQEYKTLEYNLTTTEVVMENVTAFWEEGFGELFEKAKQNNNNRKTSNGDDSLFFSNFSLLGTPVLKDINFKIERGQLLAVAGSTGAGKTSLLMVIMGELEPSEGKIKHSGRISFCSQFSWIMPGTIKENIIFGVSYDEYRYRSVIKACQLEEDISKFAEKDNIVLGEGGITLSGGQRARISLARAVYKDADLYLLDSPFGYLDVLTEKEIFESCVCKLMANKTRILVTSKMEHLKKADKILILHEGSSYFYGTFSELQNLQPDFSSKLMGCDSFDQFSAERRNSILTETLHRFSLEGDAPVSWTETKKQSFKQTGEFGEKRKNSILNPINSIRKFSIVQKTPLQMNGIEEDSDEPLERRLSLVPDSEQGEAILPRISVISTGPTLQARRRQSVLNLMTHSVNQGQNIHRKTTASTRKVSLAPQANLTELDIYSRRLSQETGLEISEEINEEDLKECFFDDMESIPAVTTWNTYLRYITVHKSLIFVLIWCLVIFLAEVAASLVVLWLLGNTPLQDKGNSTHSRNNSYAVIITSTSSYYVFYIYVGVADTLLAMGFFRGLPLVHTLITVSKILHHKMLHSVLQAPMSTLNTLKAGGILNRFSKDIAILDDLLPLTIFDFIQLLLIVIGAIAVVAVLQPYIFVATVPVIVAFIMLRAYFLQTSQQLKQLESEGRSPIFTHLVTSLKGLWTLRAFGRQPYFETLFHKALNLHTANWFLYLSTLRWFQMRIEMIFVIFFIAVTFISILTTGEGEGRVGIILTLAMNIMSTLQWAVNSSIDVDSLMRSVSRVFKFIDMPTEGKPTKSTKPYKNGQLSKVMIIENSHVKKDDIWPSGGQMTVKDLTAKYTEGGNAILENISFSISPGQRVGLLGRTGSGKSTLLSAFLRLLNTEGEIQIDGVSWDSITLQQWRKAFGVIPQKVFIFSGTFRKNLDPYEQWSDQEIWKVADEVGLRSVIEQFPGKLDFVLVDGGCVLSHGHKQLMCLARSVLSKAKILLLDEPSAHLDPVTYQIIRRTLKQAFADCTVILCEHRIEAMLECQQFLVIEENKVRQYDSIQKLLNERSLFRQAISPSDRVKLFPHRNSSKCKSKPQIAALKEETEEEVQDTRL

Compared with `Cc1cncc(Oc2ccc(CN(C)Cc3ccc(COc4ncc(-c5cc(Cl)c(O)c(Cl)c5)nn4)cc3)cc2)n1` [Compound 209, 2,6-dichloro-4-(3-(4-((methyl(4-(6-methylpyrazin-2-yloxy)benzyl)amino)methyl)benzyloxy)-1,2,4-triazin-6-yl)phenol], `CN(Cc1ccc(COc2ncc(-c3cc(Cl)c(O)c(Cl)c3)nn2)cc1)Cc1cccnc1` [Compound 222, 2,6-dichloro-4-(3-(4-((methyl(pyridin-3-ylmethyl)amino)methyl)benzyl-oxy)-1,2,4-triazin-6-yl)phenol] is 2.3-fold higher in IC50: 4.8 µM for the first, 11.2 µM for the second. The first is the more potent here.

`CN(Cc1ccc(COc2ncc(-c3cc(Cl)c(O)c(Cl)c3)nn2)cc1)Cc1ccc(-c2ccc(C(F)(F)F)cn2)cc1` [Compound 210, 2,6-dichloro-4-(3-(4-((methyl(4-(5-(trifluoromethyl)pyridin-2-yl)benzyl)amino)methyl)benzyloxy)-1,2,4-triazin-6-yl)phenol] and `CN(Cc1ccc(COc2ncc(-c3cc(Cl)c(O)c(Cl)c3)nn2)cc1)Cc1cccc(-c2cccnc2)c1` [Compound 213, 2,6-dichloro-4-(3-(4-((methyl(3-(pyridin-3-yl)benzyl)amino)methyl)benzyl-oxy)-1,2,4-triazin-6-yl)phenol] are within 1.5-fold of each other in IC50: 6.42 µM for the first, 4.31 µM for the second.

Going from `CN(Cc1ccc(COc2ncc(-c3cc(Cl)c(O)c(Cl)c3)nn2)cc1)Cc1ccc(CN2CCCC2)cc1` [Compound 211, 2,6-dichloro-4-(3-(4-((methyl(4-(pyrrolidin-1-ylmethyl)benzyl)amino)methyl)benzyloxy)-1,2,4-triazin-6-yl)phenol, diformate salt] to `CN(Cc1ccc(COc2ncc(-c3cc(Cl)c(O)c(Cl)c3)nn2)cc1)Cc1cccc(CN2CCCC2)c1` [Compound 212, 2,6-dichloro-4-(3-(4-((methyl(3-(pyrrolidin-1-ylmethyl)benzyl)amino)methyl)benzyloxy)-1,2,4-triazin-6-yl)phenol, formate salt], the IC50 falls from 8.04 µM to 4.9 µM (1.6-fold). The second is the more potent here.

`CN(Cc1ccc(COc2ncc(-c3cc(Cl)c(O)c(Cl)c3)nn2)cc1)Cc1ccc(OCCN2CCOCC2)cc1` [Compound 214, 2,6-dichloro-4-(3-(4-((methyl(4-(2-morpholinoethoxy)benzyl)amino)methyl)benzyloxy)-1,2,4-triazin-6-yl)phenol] and `O=C(c1ccco1)N1CCN(Cc2ccc(COc3ncc(-c4cc(Cl)c(O)c(Cl)c4)nn3)cc2)CC1` [Compound 217, (4-(4-((6-(3,5-dichloro-4-hydroxyphenyl)-1,2,4-triazin-3-yloxy)methyl)benzyl)piperazin-1-yl)(furan-2-yl)methanone] are within 1.5-fold of each other in IC50: 5.19 µM for the first, 4.47 µM for the second.

`OCCN(Cc1ccc(COc2ncc(-c3cc(Cl)c(O)c(Cl)c3)nn2)cc1)Cc1cccc(Cl)c1Cl` [Compound 215, 2,6-dichloro-4-(3-(4-(((2,3-dichlorobenzyl)(2-hydroxyethyl)amino)methyl)benzyloxy)-1,2,4-triazin-6-yl)phenol] and `OCCN(Cc1ccc(COc2ncc(-c3cc(Cl)c(O)c(Cl)c3)nn2)cc1)Cc1cccc(OCc2ccccc2Cl)c1` [Compound 223, 2,6-dichloro-4-(3-(4-(((3-(2-chlorobenzyloxy)benzyl)(2-hydroxyethyl)amino)methyl)benzyloxy)-1,2,4-triazin-6-yl)phenol] are within 1.5-fold of each other in IC50: 4.54 µM for the first, 3.55 µM for the second.

`CC(=O)N1CCN(Cc2ccc(COc3ncc(-c4cc(Cl)c(O)c(Cl)c4)nn3)cc2)CC1` [Compound 216, 1-(4-(4-((6-(3,5-dichloro-4-hydroxyphenyl)-1,2,4-triazin-3-yloxy)methyl)benzyl)piperazin-1-yl)ethanone] and `CCC(=O)N1CCN(Cc2ccc(COc3ncc(-c4cc(Cl)c(O)c(Cl)c4)nn3)cc2)CC1` [Compound 221, 1-(4-(4-((6-(3,5-dichloro-4-hydroxyphenyl)-1,2,4-triazin-3-yloxy)methyl)benzyl)piperazin-1-yl)propan-1-one] are within 1.5-fold of each other in IC50: 23.2 µM for the first, 17.4 µM for the second.

Compared with `O=C(c1ccccc1)N1CCN(Cc2ccc(COc3ncc(-c4cc(Cl)c(O)c(Cl)c4)nn3)cc2)CC1` [Compound 218, (4-(4-((6-(3,5-dichloro-4-hydroxyphenyl)-1,2,4-triazin-3-yloxy)methyl)benzyl)piperazin-1-yl)(phenyl)methanone], `O=C(c1ccccc1Cl)N1CCN(Cc2ccc(COc3ncc(-c4cc(Cl)c(O)c(Cl)c4)nn3)cc2)CC1` [Compound 220, (2-chlorophenyl)(4-(4-((6-(3,5-dichloro-4-hydroxyphenyl)-1,2,4-triazin-3-yloxy)methyl)benzyl)piperazin1-yl)methanone] is 2-fold lower in IC50: 3.8 µM for the first, 1.89 µM for the second. The second is the more potent here.

`O=C(C1CC1)N1CCN(Cc2ccc(COc3ncc(-c4cc(Cl)c(O)c(Cl)c4)nn3)cc2)CC1` [Compound 219, cyclopropyl(4-(4-((6-(3,5-dichloro-4-hydroxyphenyl)-1,2,4-triazin-3-yloxy)methyl)benzyl)piperazin1-yl)methanone] and `O=C(c1cccnc1)N1CCN(Cc2ccc(COc3ncc(-c4cc(Cl)c(O)c(Cl)c4)nn3)cc2)CC1` [Compound 224, (4-(4-((6-(3,5-dichloro-4-hydroxyphenyl)-1,2,4-triazin-3-yloxy)methyl)benzyl)piperazin-1-yl)(pyridin-3-yl)methanone] are within 1.5-fold of each other in IC50: 12.4 µM for the first, 11.8 µM for the second.

`Cc1csc(CC(=O)N2CCN(Cc3ccc(COc4ncc(-c5cc(Cl)c(O)c(Cl)c5)nn4)cc3)CC2)n1` [Compound 225, 1-(4-(4-((6-(3,5-dichloro-4-hydroxyphenyl)-1,2,4-triazin-3-yloxy)methyl)benzyl)piperazin-1-yl)-2-(4-methylthiazol-2-yl)ethanone] was tested, and the IC50 was 11.1 µM.
